Active and inactive are the calls of the source.
What was measured:
[1] = HepG2 cell cytotoxicity, dose response, cytotoxicity control, cherry-picks, set 5 (AID 1053118); assay type: functional, cell-based
[2] = HEK293 cell cytotoxicity, dose response, cytotoxicity control, cherry-picks, set 5 (AID 1053117); assay type: functional, cell-based
[3] = inhibitors of fibronectin matrix deposition, dose response, AH1F cells, Alexa488-FN fluorescence, cherry-picks (AID 1035475); assay type: functional, cell-based
[4] = molecular target: G2/mitotic-specific cyclin-B1 (Homo sapiens, UniProt P14635); assay: Counterscreen assay for inhibitors of Wee1 degradation: dose response cell-based assay to identify inhibitors of cyclin B degradation. [Related pubchem assays: 1410, 1321 ]; assay type: functional
[5] = molecular target: Sphingosine 1-phosphate receptor 2 (Homo sapiens, UniProt O95136); assay: Dose Response Cell Based Assay for Antagonists of the S1P2 Receptor. [Related pubchem assays: 856, 736 ]; assay type: functional
Wee1-like protein kinase = Wee1-like protein kinase (Homo sapiens, UniProt P30291); assay: Dose Response Cell-based Assay for Inhibitors of Wee1 Degradation. [Related pubchem assays: 1410, 1321 ]; assay type: functional
[6] = molecular target: T1, Heat shock factor protein 1 (Mus musculus, UniProt P38532); assay: inhibition of MG132-induced HSE-luciferase signal, confirmation, cell-based, NIH3T3, luminescence, dose retest (AID 2382); assay type: functional;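 also: NIH3T3 fibroblasts with HSF1-driven luciferase reporter stressed by proteasome inhibitor MG132; luminescence from HSF1-driven luciferase expression after 8 hours of MG132 stress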
T1 sequence (P38532 whole entry): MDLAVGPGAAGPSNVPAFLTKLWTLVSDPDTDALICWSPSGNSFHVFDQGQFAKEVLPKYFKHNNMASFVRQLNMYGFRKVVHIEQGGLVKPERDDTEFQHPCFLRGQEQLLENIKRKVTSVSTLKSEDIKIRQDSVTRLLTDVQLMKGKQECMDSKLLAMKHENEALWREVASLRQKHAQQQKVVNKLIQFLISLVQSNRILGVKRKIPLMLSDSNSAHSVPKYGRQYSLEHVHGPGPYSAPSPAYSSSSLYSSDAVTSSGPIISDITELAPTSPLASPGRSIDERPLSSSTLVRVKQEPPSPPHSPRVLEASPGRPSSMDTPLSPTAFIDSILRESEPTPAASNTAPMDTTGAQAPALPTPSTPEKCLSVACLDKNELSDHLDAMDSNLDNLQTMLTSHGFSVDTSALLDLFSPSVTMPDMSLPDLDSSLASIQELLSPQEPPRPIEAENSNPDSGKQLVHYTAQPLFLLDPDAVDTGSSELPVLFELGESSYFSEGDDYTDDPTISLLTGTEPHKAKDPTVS

[7] = cytotoxicity in HPDE-C7 cells, cell-based, fluorescence, HTS (AID 430); assay type: functional; conditions: Homo sapiens
[8] = cytotoxicity in KRAS-transformed pancreatic duct cells, primary screen, cell-based, fluorescence, HTS (AID 431); assay type: functional; conditions: Homo sapiens;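 also: cell line used: HPDE-C7K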
[9] = cytotoxicity in HEK-293T cells, dose response, cytotoxicity control for TCR NF-kB inhibitor project, luminescence, T-cell screen hits (AID 489026); assay type: functional, cell-based;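 also: cells exposed to compound about 14 hours before the viability readout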
INS1 = assay: beta cell apoptosis inhibitors, cytokine rescue, dose response, luminescence, retest (AID 449756); assay type: functional, cell-based; conditions: Rattus norvegicus;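 also: cell death triggered by IL-1 beta plus TNF-alpha plus IFN-gamma mixture; protective hits raise ATP signal compared with cytokine alone wells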
[10] = miR-122 activators in hepatoma reporter cells, dose response, cell-based, Huh7 psiCHECK-miR122, Renilla luciferase, cherry-picked (AID 651956); assay type: functional;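 also: huh7 hepatoma cells stably carrying a psiCHECK-2 miR-122 sensor plasmid; renilla luciferase signal reporting endogenous miR-122 activity after 48 h compound exposure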
[11] = inhibitors of PGC1a acetylation in cells, dose response, cell-based, cherry-picked samples (AID 720514); assay type: functional;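 also: potency may reflect raised or lowered acetylation signal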
[12] = HEK293T cytotoxicity, dose response, cytotoxicity control for miR-122 modulator project, cell-based, inhibitor set, cherry-pick, set 2 (AID 720697); assay type: functional
[13] = HEK293T cytotoxicity, dose response, cytotoxicity control for miR-122 modulator project, cell-based, activator set, cherry-pick (AID 720690); assay type: functional;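 also: HEK293T human cells scored for general mammalian cytotoxicity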
Major prion protein = Major prion protein (Homo sapiens, UniProt P04156); assay type: functional, cell-based
cells [14] = assay: cells
[15] = molecular target: Potassium channel subfamily K member 9 (Homo sapiens, UniProt Q9NPC2); assay: TASK3 (KCNK9) channel inhibitors, thallium flux, SAR follow-up, selectivity assay for TASK1 inhibitor project, cell-based, FluxOR thallium flux, concentration-response (AID 652211); assay type: functional;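 also: potency is for inhibitors of the channel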
[16] = molecular target: Potassium channel subfamily K member 3 (Rattus norvegicus, UniProt O54912); assay: SAR analysis for the identification of selective inhibitors of the two-pore domain potassium channel TASK1(KCNK3):Automated Electrophysiology.; assay type: functional
[17] = HepG2 cell cytotoxicity, dose response, cytotoxicity control, ATP luminescence, cherry-pick, set 6 (AID 1053125); assay type: functional, cell-based
[18] = molecular target: T2, Nuclear receptor subfamily 0 group B member 1 (Homo sapiens, UniProt P51843); assay: Luminescence-based cell-based high throughput dose response assay for inhibitors of the orphan nuclear receptor subfamily 0, group B, member 1 (DAX1; NR0B1). [Related pubchem assays (depositor defined):AID504766, AID504790]; assay type: functional
T2 sequence (P51843 whole entry): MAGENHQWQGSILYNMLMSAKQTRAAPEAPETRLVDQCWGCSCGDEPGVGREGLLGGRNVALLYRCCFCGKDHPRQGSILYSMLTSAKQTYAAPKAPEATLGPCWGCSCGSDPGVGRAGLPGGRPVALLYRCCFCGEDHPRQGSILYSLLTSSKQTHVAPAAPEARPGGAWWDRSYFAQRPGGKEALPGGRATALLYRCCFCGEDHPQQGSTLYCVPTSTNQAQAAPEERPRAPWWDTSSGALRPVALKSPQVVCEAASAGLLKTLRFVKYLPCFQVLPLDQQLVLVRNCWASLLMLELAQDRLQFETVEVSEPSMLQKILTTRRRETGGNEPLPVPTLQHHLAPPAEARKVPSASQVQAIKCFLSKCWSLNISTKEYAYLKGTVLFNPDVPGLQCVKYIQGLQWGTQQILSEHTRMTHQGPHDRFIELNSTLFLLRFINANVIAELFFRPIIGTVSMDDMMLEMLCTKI

[19] = molecular target: T2, Nuclear receptor subfamily 0 group B member 1; assay type: functional, cell-based
[20] = CFTR ΔF508 corrector activity in bronchial cells, dose response, human bronchial epithelial cells, plate reader, cherry-pick, two tests (AID 743267); assay type: functional, cell-based
[21] = HepG2 cell cytotoxicity, dose response, cytotoxicity control, ATP luminescence, cherry-pick, activator set 2 (AID 1053143); assay type: functional, cell-based
[22] = HepG2 cell cytotoxicity, dose response, cytotoxicity control, CellTiter-Glo luminescence, cherry-pick, set 2 (AID 743395); assay type: functional
[23] = NIH/3T3 fibroblast cytotoxicity, dose response, cytotoxicity control, cell-based, plate reader, dry powder, set 2 (AID 652280); assay type: functional; conditions: NIH3T3
[24] = NIH/3T3 fibroblast cytotoxicity, dose response, cytotoxicity control, cell-based, dry powder samples (AID 651844); assay type: functional; conditions: NIH3T3
cells [25] = assay type: functional, cell-based
[26] = Luminescence-based cell-based high throughput dose response assay to identify activators of the DAF-12 from the parasite S. stercoralis (ssDAF-12).; assay type: functional
[27] = A549 cell cytotoxicity, dose response, cytotoxicity control, cherry-picks, 26 µM top dose (AID 1053119); assay type: functional, cell-based
HeLa = assay: HeLa cell cytotoxicity, dose response, cytotoxicity control, ATP luminescence, cherry-pick samples (AID 687004); assay type: functional, cell-based; conditions: Homo sapiens
HEK293 = assay: HEK293T cell cytotoxicity, dose response, cytotoxicity control, ATP luminescence, cherry-pick samples (AID 687005); assay type: functional, cell-based; conditions: Homo sapiens;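 also: cells exposed to compound for 48 hours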
[28] = HEK293 Cytotoxicity Assay Measured in Cell-Based System Using Plate Reader - 7071-01_Inhibitor_Dose_CherryPick_Activity_Set2.; assay type: functional

## O=S(=O)(c1ccccc1F)N1CC[C@@H]2[C@@H](CO)Nc3ccc(-c4cccc(F)c4)cc3[C@@H]21
[1]
  AC50: 32.6 µM (active)
[2]
  AC50: > 52 µM (inactive)
[3]
  AC50: 39.9 µM (active)

## O=S(=O)(C/C(=C/CO)S(=O)(=O)c1ccccc1)c1ccccc1
[4]
  EC50: > 5.53 µM (active)
[5]
  IC50: 3.07 µM (active)
Wee1-like protein kinase
  EC50: > 5.53 µM (active)
[6]
  EC50: 4.31 µM (active)
[7]
  EC50: 1.92 µM (active)
[8]
  EC50: 2.5 µM (active)
[9]
  IC50: 67.1 µM (inactive)
INS1
  AC50: 9.58 µM (active)
[10]
  AC50: 6.77 µM (active)
[11]
  AC50: 3.28 µM (active)
[12]
  AC50: 4.09 µM (active)
[13]
  AC50: 4.73 µM (active)
Major prion protein
  IC50: 9.14 µM (active)
Cells [14]
  IC50: 42.9 µM (inactive)

## COc1ccccc1C(=O)Nc1cccc(NC(=O)c2ccccc2OC)c1
[15]
  IC50: 3.62 µM (active)
[16]
  IC50: 0.03 µM (active)

## CCOc1ccc2nc(NCCCNS(=O)(=O)c3ccc(F)cc3)c(C#N)cc2c1
[17]
  AC50: > 52 µM (inactive)

## O=C(CCCCCCC(=O)Nc1ccccc1)NO [VORINOSTAT]
[18]
  IC50: > 67.6 µM (inactive)
[19]
  IC50: 0.747 µM (active)
[20]
  AC50: 0.933 µM (active)
[21]
  AC50: 1.75 µM (active)
[22]
  AbsAC35_uM: 0.468 µM

## CC(C)N1C[C@H](C)[C@@H](CN(C)Cc2ccc(Oc3ccccc3)cc2)Oc2c(NC(=O)C3CCN(C)CC3)cccc2C1=O
[23]
  AC50: 8.58 µM (active)
[24]
  AC50: 8.58 µM (active)

## C(=Cc1c[nH]c2ccccc12)c1ccc2ccccc2n1
Cells [25]
  IC50: > 67.5 µM (inactive)
[19]
  IC50: 10.3 µM (inactive)
[26]
  IC50: > 67.5 µM (inactive)

## COc1ccc(Cl)cc1NC(=O)CSc1nc(Nc2ccccc2)nc(N2CCOCC2)n1
[27]
  AC50: > 52 µM (inactive)
[3]
  AC50: 64.2 µM (active)

## CC(C)CC#Cc1ccc2c(c1)O[C@H](CN(C)C(=O)C1CCC1)[C@@H](C)CN([C@@H](C)CO)S2(=O)=O
HeLa
  AC50: > 52 µM (inactive)
HEK293
  AC50: 15.8 µM (active)
[28]
  AC50: 15.8 µM (active)

Reference: ChEMBL document CHEMBL1201862, “PubChem BioAssay data set” (2004)
